Measurements from ChEMBL document CHEMBL1201862, “PubChem BioAssay data set” (2004).
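Cells were grown in 96-well plates and exposed to each compound for 48 hours at five concentrations; endpoints were interpolated linearly between bracketing concentrations, or set to the highest concentration if not reached. GI50: concentration for 50% inhibition of growth.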 Activity calls are given as the source filed them. No stated cut-off is given here; in the data, active = GI50 up to about 1.1 µM and inactive = higher.

Columns and labels:
Assay in all cases: NCI-60 cell line screen, 48 h
[1] = system: DLD-1
[2] = system: DMS-114
[3] = system: DMS-273
[4] = system: HOP-18
[5] = system: KM-20L2
[6] = system: LXFL 529
[7] = system: M19-MEL
[8] = system: XF498
[9] = system: RXF 631

| SMILES | GI50 [1] | GI50 [2] | GI50 [3] | GI50 [4] | GI50 [5] | GI50 [6] | GI50 [7] | GI50 [8] | GI50 [9] |
| --- | --- | --- | --- | --- | --- | --- | --- | --- | --- |
| OCC(O)C(O)C(O)c1nn(-c2ccc(F)cc2)c2nc3cc(Cl)c(Cl)cc3nc12 (configuration not stated) | 32.7 µM (inactive) | 21.3 µM (inactive) | 15.9 µM (inactive) | 16.9 µM (inactive) | 49.7 µM (inactive) | 28.1 µM (inactive) | 22 µM (inactive) | 11.4 µM (inactive) | – |
| Brc1cc(C2OCCCO2)ccc1OCc1ccccc1 | 37 µM (inactive) | 44.3 µM (inactive) | 47.8 µM (inactive) | – | > 10 µM (inactive) | 45.9 µM (inactive) | 66.5 µM (inactive) | 59.3 µM (inactive) | – |
| O=C1C=CC2(CCCCCCC2=O)CC1 (configuration not stated) | > 100 µM (inactive) | – | > 100 µM (inactive) | > 100 µM (inactive) | > 100 µM (inactive) | > 100 µM (inactive) | > 100 µM (inactive) | – | – |
| O=C(/C=C/c1c(O)ccc2ccccc12)c1ccccc1Cl | 31.1 µM (inactive) | 19.9 µM (inactive) | 34.3 µM (inactive) | – | > 100 µM (inactive) | 31 µM (inactive) | 14 µM (inactive) | 23.3 µM (inactive) | – |
| CCCCCCCCC(=O)NCCCNCCCNC(=O)CCCCCCCC | 2.93 µM (inactive) | 3.78 µM (inactive) | 2.56 µM (inactive) | 11.9 µM (inactive) | 2.53 µM (inactive) | 3.35 µM (inactive) | 3.93 µM (inactive) | 3.18 µM (inactive) | – |
| CN(C)c1ccc(/C=C(/C(=O)O)c2csc(-c3nc(/C(=C\c4ccc(N(C)C)cc4)C(=O)O)cs3)n2)cc1 | > 100 µM (inactive) | 29.9 µM (inactive) | – | – | > 100 µM (inactive) | 96.4 µM (inactive) | > 100 µM (inactive) | – | – |
| CCOC(=O)C(CCC(N)=O)(CCC(=O)OC)C(=O)OCC | > 100 µM (inactive) | > 100 µM (inactive) | > 100 µM (inactive) | > 100 µM (inactive) | > 100 µM (inactive) | > 100 µM (inactive) | > 100 µM (inactive) | > 100 µM (inactive) | – |
| COc1ccc(C(Cl)=C(c2ccc(OCCN(C)C)cc2)c2ccc(OCCN(C)C)cc2)cc1 | 2.51 µM (inactive) | 1.6 µM (inactive) | 1.86 µM (inactive) | – | 1.36 µM (inactive) | – | – | 1.46 µM (inactive) | 0.322 µM (active) |
| Cc1nc2nnnn2c2c1C(=O)Nc1ccccc1N2 | > 100 µM (inactive) | > 100 µM (inactive) | > 100 µM (inactive) | > 100 µM (inactive) | > 100 µM (inactive) | > 100 µM (inactive) | > 100 µM (inactive) | > 100 µM (inactive) | – |
| COc1cccc(C(=O)N2CCc3ccccc32)c1OC | – | 43.8 µM (inactive) | 41 µM (inactive) | 34.1 µM (inactive) | 80.2 µM (inactive) | 74 µM (inactive) | > 100 µM (inactive) | 40.3 µM (inactive) | 58.5 µM (inactive) |
| COc1ccc(CNc2cnc3ccc(N)cc3n2)cc1 | > 100 µM (inactive) | 2.09 µM (inactive) | 0.0531 µM (active) | > 100 µM (inactive) | – | – | 0.243 µM (active) | > 100 µM (inactive) | – |
| O=C(O)CCNS(=O)(=O)c1ccc(NC(=O)c2ccccc2)cc1 | > 100 µM (inactive) | – | > 100 µM (inactive) | > 100 µM (inactive) | > 100 µM (inactive) | > 100 µM (inactive) | > 100 µM (inactive) | > 100 µM (inactive) | – |
| O=C(Cc1nc2ccccc2s1)NC12CC3CC(CC(C3)C1)C2 | > 100 µM (inactive) | – | > 100 µM (inactive) | – | > 100 µM (inactive) | > 100 µM (inactive) | > 100 µM (inactive) | – | > 100 µM (inactive) |
| CCc1c(C)[nH]c2c1/C(=N/N=C1\CCCc3[nH]c(C)c(CC)c31)CCC2 | > 100 µM (inactive) | 14.1 µM (inactive) | 17.4 µM (inactive) | – | 27 µM (inactive) | 13.8 µM (inactive) | 20.6 µM (inactive) | 18.2 µM (inactive) | 22.5 µM (inactive) |
| Cc1ccc(/N=C2\N=C(N3CC(C)OC(C)C3)c3ccccc32)cc1 (configuration not stated) | 41.3 µM (inactive) | – | 28.1 µM (inactive) | – | 27.5 µM (inactive) | 18.9 µM (inactive) | 36.1 µM (inactive) | 24.3 µM (inactive) | 34.9 µM (inactive) |
| Cc1ccc(C)c(NC(=O)CC/C(=N\NC(=O)c2c(O)ccc3ccccc23)C(C)C(=O)c2ccc(O)cc2)c1 (configuration not stated) | 52.5 µM (inactive) | – | 26.9 µM (inactive) | 14.3 µM (inactive) | 15.1 µM (inactive) | 30.5 µM (inactive) | – | 44.3 µM (inactive) | – |
| COc1ccc2c(c1)C(=O)N1CCOC1C2C(=O)O (configuration not stated) | > 100 µM (inactive) | > 100 µM (inactive) | 0.693 µM (active) | > 100 µM (inactive) | > 100 µM (inactive) | > 100 µM (inactive) | > 100 µM (inactive) | > 100 µM (inactive) | > 100 µM (inactive) |
| CN(C)CCNC(=O)c1cccc2[nH]c(-c3cccnc3)nc12 | 22.2 µM (inactive) | – | 20.7 µM (inactive) | 25.2 µM (inactive) | – | – | 20.2 µM (inactive) | – | – |
| COc1cc(C[P+](c2ccccc2)(c2ccccc2)c2ccccc2)cc(OC)c1OC | > 100 µM (inactive) | > 100 µM (inactive) | > 100 µM (inactive) | – | > 100 µM (inactive) | > 100 µM (inactive) | > 100 µM (inactive) | > 100 µM (inactive) | – |
| CCOC(=O)NC(=O)c1cn(CCN2CCN(C(=O)CNC(=O)CNC(=O)Cn3cc(C(=O)NC(=O)OCC)c(=O)[nH]c3=O)CC2)c(=O)[nH]c1=O | > 100 µM (inactive) | > 100 µM (inactive) | > 100 µM (inactive) | > 100 µM (inactive) | > 100 µM (inactive) | > 100 µM (inactive) | > 100 µM (inactive) | > 100 µM (inactive) | – |
| O=C(O)/C=C/C(=O)N1C/C(=C\c2ccccc2)C(=O)/C(=C/c2ccccc2)C1 | 3.94 µM (inactive) | 2.99 µM (inactive) | 8.53 µM (inactive) | 11.9 µM (inactive) | 5.9 µM (inactive) | 1.8 µM (inactive) | 3.21 µM (inactive) | 7.18 µM (inactive) | – |
| COC(=O)/C(=N\NC(N)=S)C(C#N)c1ccccc1 (configuration not stated) | > 100 µM (inactive) | > 100 µM (inactive) | – | – | > 100 µM (inactive) | > 100 µM (inactive) | > 100 µM (inactive) | > 100 µM (inactive) | – |
| Cn1c(=O)c2c(nc3n2CCC(=O)N3)n(C)c1=O | > 100 µM (inactive) | > 100 µM (inactive) | > 100 µM (inactive) | – | > 100 µM (inactive) | > 100 µM (inactive) | > 100 µM (inactive) | – | > 100 µM (inactive) |
| CCCCCCCCCCCCSC(=S)c1c(C)[nH]n(-c2ccccc2)c1=O | 2.3 µM (inactive) | 6.84 µM (inactive) | – | > 50 µM (inactive) | 10.2 µM (inactive) | 9.12 µM (inactive) | – | – | 13.2 µM (inactive) |
| CC(N)Cc1ccc(Cl)cc1 (configuration not stated) | > 100 µM (inactive) | – | > 100 µM (inactive) | > 100 µM (inactive) | 47.2 µM (inactive) | > 100 µM (inactive) | – | > 100 µM (inactive) | – |
